From US20240158446A1, “CYCLIC COMPOUND HAVING SELECTIVE INHIBITORY ACTION ON KRAS OVER HRAS AND NRAS” (CHUGAI SEIYAKU KABUSHIKI KAISHA, priority 2021, published 2024)
Where two headings read alike, the source gives them in different places. Where a SMILES comes first, the peptide text is derived from it. Bridges are numbered along the chain shown (N, C = ends). [ ]: non-standard residue; d: D form. The star is where a group is joined. hPhe(3,5-F2-4-CF3) = N[C@@H](CCc1cc(F)c(C(F)(F)F)c(F)c1)C(=O)O; hPhe(3-Cl-4-CF3) = N[C@@H](CCc1ccc(C(F)(F)F)c(Cl)c1)C(=O)O; NPrPhe(4-CF3) = CCCN[C@@H](Cc1ccc(C(F)(F)F)cc1)C(=O)O; Pip(4,4-F2) = O=C(O)[C@@H]1CC(F)(F)CCN1; NMeGly(cPent) = CN[C@H](C(=O)O)C1CCCC1; Pro(4,4-F2) = O=C(O)[C@@H]1CC(F)(F)CN1; NMeGly(cBu) = CN[C@H](C(=O)O)C1CCC1; αMeI = CC[C@H](C)[C@](C)(N)C(=O)O; Gly(cBu) = N[C@H](C(=O)O)C1CCC1; NMeD = CN[C@@H](CC(=O)O)C(=O)O; NMeL = CN[C@@H](CC(C)C)C(=O)O; NMeAbu = CC[C@H](NC)C(=O)O; Morpholide = C1CN(*)CCO1; NMeA = CN[C@@H](C)C(=O)O; Ac5c = NC1(C(=O)O)CCCC1; Aze = O=C(O)[C@@H]1CCN1; NEtG = CCNCC(=O)O; Sar = CNCC(=O)O

How the values were obtained:
[1] = biological target: GDP-bound KRAS wild-type protein (Homo sapiens, UniProt P01116); experiment: Binding to KRAS by surface plasmon resonance (SPR), Single Cycle Kinetics; conditions: GDP-bound KRAS wild-type protein, read-out: KRAS KD
Chain of GDP-bound KRAS wild-type protein (P01116 whole entry): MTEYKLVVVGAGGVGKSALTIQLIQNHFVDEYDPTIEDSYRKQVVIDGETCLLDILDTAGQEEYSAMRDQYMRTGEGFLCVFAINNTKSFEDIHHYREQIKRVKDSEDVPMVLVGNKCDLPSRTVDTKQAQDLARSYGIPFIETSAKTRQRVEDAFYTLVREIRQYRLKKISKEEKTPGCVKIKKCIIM

[2] = biological target: GDP-bound HRAS wild-type protein (Homo sapiens, UniProt P01112); experiment: Binding to HRAS by surface plasmon resonance (SPR), Single Cycle Kinetics; conditions: for HRAS/KRAS (ratio of KD value for HRAS to KD value for KRAS) / HRAS/KRAS (ratio of KD value with respect to HRAS to KD value with respect to KRAS): SPR, GDP-bound HRAS wild-type protein vs GDP-bound KRAS wild-type protein
Chain of GDP-bound HRAS wild-type protein (P01112 whole entry): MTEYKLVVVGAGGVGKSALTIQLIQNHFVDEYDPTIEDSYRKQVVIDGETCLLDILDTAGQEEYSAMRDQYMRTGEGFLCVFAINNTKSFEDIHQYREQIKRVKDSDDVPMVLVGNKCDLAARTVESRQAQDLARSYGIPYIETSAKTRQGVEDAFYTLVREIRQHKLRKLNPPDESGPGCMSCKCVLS

[3] = biological target: GDP-bound NRAS wild-type protein (Homo sapiens, UniProt P01111); experiment: Binding to NRAS by surface plasmon resonance (SPR), Single Cycle Kinetics; conditions: for NRAS/KRAS (ratio of KD value for NRAS to KD value for KRAS) / NRAS/KRAS (ratio of KD value with respect to NRAS to KD value with respect to KRAS): SPR, GDP-bound NRAS wild-type protein vs GDP-bound KRAS wild-type protein
Chain of GDP-bound NRAS wild-type protein (P01111 whole entry): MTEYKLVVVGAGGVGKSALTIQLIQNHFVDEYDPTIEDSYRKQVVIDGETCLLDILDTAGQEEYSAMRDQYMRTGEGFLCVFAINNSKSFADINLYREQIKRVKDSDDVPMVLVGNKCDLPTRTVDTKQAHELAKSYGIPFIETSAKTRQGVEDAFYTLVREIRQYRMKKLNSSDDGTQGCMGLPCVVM

[4] = SPR Single Cycle Kinetics, 1:1 binding model

| SMILES | Kd [1, 4] | HRAS/KRAS (ratio of KD value for HRAS to KD value for KRAS) [2] | NRAS/KRAS (ratio of KD value for NRAS to KD value for KRAS) [3] | other results |
| --- | --- | --- | --- | --- |
| CCCN1C(=O)[C@@H]2CCN2C(=O)CN(C)C(=O)[C@H]([C@@H](C)CC)NC(=O)[C@H](CC(C)C)N(C)C(=O)C[C@@H](C(=O)N2CCOCC2)NC(=O)[C@H](C2CCCC2)N(C)C(=O)C2(CCCC2)NC(=O)[C@@H]2CC(F)(F)CN2C(=O)[C@H](CCc2ccc(C(F)(F)F)c(Cl)c2)NC(=O)CN(C)C(=O)[C@@H]1Cc1ccc(C(F)(F)F)cc1 [PP0351] ([NMeL]I[Sar][Aze][NPrPhe(4-CF3)][Sar][hPhe(3-Cl-4-CF3)][Pro(4,4-F2)][Ac5c][NMeGly(cPent)]D-Morpholide; lactam N-11) | 1.1 nM | B (a compound having 3 or more and less than 10 is denoted as B) | C (A compound having a KD ratio of 0.1 or more and less than 3 is denoted as C) |  |
| CCCN(C)C(=O)[C@@H]1CC(=O)N(C)[C@@H](C2CC2)C(=O)N[C@@H]([C@@H](C)CC)C(=O)N(C)CC(=O)N(C)[C@H]2C/C=C\CCN(C2=O)[C@@H](Cc2ccc(C(F)(F)F)cc2)C(=O)N(C)CC(=O)N[C@@H](CCc2cc(F)c(C(F)(F)F)c(F)c2)C(=O)N2C[C@@H](C)C[C@H]2C(=O)NC2(CCC2)C(=O)N(C)[C@@H](C2CCCC2)C(=O)N1C [PP2081] |  | A (a compound having 10 or more and less than 20 is denoted as A) | A (a compound having 10 or more and less than 20 is denoted as A) | Kd ([1]; SPR, Single Cycle Kinetics): 0.12 nM |
| CCCN1C(=O)[C@@H]2CCN2C(=O)[C@H](C)N(C)C(=O)[C@H]([C@@H](C)CC)NC(=O)[C@H](C2CCC2)N(C)C(=O)C[C@@H](C(=O)N2CCOCC2)N(C)C(=O)[C@H](C2CCCC2)N(C)C(=O)C2(CCCC2)NC(=O)[C@@H]2CC(F)(F)CN2C(=O)[C@H](CCc2ccc(C(F)(F)F)c(Cl)c2)NC(=O)CN(C)C(=O)[C@@H]1Cc1ccc(C(F)(F)F)cc1 [PP0204] ([NMeGly(cBu)]I[NMeA][Aze][NPrPhe(4-CF3)][Sar][hPhe(3-Cl-4-CF3)][Pro(4,4-F2)][Ac5c][NMeGly(cPent)][NMeD]-Morpholide; lactam N-11) | 0.21 nM | C (A compound having a KD ratio of 0.1 or more and less than 3 is denoted as C) | C (A compound having a KD ratio of 0.1 or more and less than 3 is denoted as C) |  |
| CCO[C@@H]1C[C@H]2C(=O)NC3(CCC3)C(=O)N(C)[C@@H](C(CC)CC)C(=O)N(C)[C@H](C(=O)N3CCOCC3)CC(=O)N(C)[C@@H](CC3CC3)C(=O)N[C@@H]([C@@H](C)CC)C(=O)N(C)CC(=O)N(C)[C@H]3C/C=C\CCN(C3=O)[C@@H](Cc3ccc(F)cc3C)C(=O)N(C)CC(=O)N[C@@H](CCc3cc(F)c(C(F)(F)F)c(F)c3)C(=O)N2C1 [PP1526] |  |  |  | Kd ([1]; SPR, Single Cycle Kinetics, 1:1 binding model): 1.3 nM; HRAS/KRAS (ratio of KD value for HRAS to KD value for KRAS) ([2]; KD ratio class): A (a compound having 10 or more and less than 20 is denoted as A); NRAS/KRAS (ratio of KD value for NRAS to KD value for KRAS) ([3]; KD ratio class): A (a compound having 10 or more and less than 20 is denoted as A) |
| CC[C@H](C)[C@@H]1NC(=O)[C@H](CC(C)C)N(C)C(=O)C[C@@H](C(=O)N2CCOCC2)N(CC)C(=O)[C@H](C2CCCC2)N(C)C(=O)C2(CCCC2)NC(=O)[C@@H]2CCCN2C(=O)[C@H](CCc2cc(F)c(C(F)(F)F)c(F)c2)NC(=O)CN(C)C(=O)[C@H](Cc2ccc(C(F)(F)F)cc2)N2CCCCC[C@@H](C2=O)N(C)C(=O)CN(C)C1=O [PP0477] | 11 nM |  |  | HRAS/KRAS (ratio of KD value with respect to HRAS to KD value with respect to KRAS) [2]: A (a compound having 10 or more and less than 20 is denoted as A); NRAS/KRAS (ratio of KD value with respect to NRAS to KD value with respect to KRAS) [3]: A (a compound having 10 or more and less than 20 is denoted as A) |
| CCO[C@@H]1C[C@H]2C(=O)NC3(CCC3)C(=O)N(C)[C@@H](C3CCCC3)C(=O)N(C)[C@H](C(=O)N(C)C)CC(=O)N(C)[C@@H](CC(C)C)C(=O)N[C@@H]([C@@H](C)CC)C(=O)N3CC[C@H]3C(=O)N(C)[C@H]3CC(C)=C(C)CN(C3=O)[C@@H](Cc3ccc(C(F)(F)F)cc3)C(=O)N(C)CC(=O)N[C@@H](CCc3cc(F)c(C(F)(F)F)c(F)c3)C(=O)N2C1 [PP1047] |  | C (A compound having a KD ratio of 0.1 or more and less than 3 is denoted as C) | C (A compound having a KD ratio of 0.1 or more and less than 3 is denoted as C) | Kd ([1]; SPR, Single Cycle Kinetics): 0.85 nM |
| CCO[C@@H]1C[C@H]2C(=O)NC3(CCC3)C(=O)N(C)[C@@H](C3CCCC3)C(=O)N(C)[C@H](C(=O)N(C)C)CC(=O)N(C)[C@@H](CC)C(=O)N[C@@H]([C@@H](C)CC)C(=O)N(C)CC(=O)N(C)[C@H]3CCCCCN(C3=O)[C@@H](Cc3ccc(C(F)(F)F)cc3)C(=O)N(C)CC(=O)N[C@@H](CCc3c(F)c(F)c(C(F)(F)F)c(F)c3F)C(=O)N2C1 [PP0891] |  | B (a compound having 3 or more and less than 10 is denoted as B) | B (a compound having 3 or more and less than 10 is denoted as B) | Kd ([1]; SPR, Single Cycle Kinetics): 0.62 nM |
| CCCN1C(=O)CN(C)C(=O)[C@@H]2CCN2C(=O)[C@H]([C@@H](C)CC)NC(=O)[C@H](CC(C)C)N(C)C(=O)C[C@@H](C(=O)N2CCOCC2)N(C)C(=O)[C@H](C2CCCC2)N(C)C(=O)[C@](C)([C@@H](C)CC)NC(=O)[C@@H]2CCCN2C(=O)[C@H](CCc2cc(F)c(C(F)(F)F)c(F)c2)NC(=O)CN(C)C(=O)[C@@H]1Cc1ccc(C(F)(F)F)cc1 [PP0774] ([NMeL]I[Aze][Sar][NPrPhe(4-CF3)][Sar][hPhe(3,5-F2-4-CF3)]P[αMeI][NMeGly(cPent)][NMeD]-Morpholide; lactam N-11) | 17 nM |  |  | HRAS/KRAS (ratio of KD value with respect to HRAS to KD value with respect to KRAS) [2]: B (a compound having 3 or more and less than 10 is denoted as B); NRAS/KRAS (ratio of KD value with respect to NRAS to KD value with respect to KRAS) [3]: B (a compound having 3 or more and less than 10 is denoted as B) |
| CCCN1C(=O)[C@@H]2CCN2C(=O)[C@H](C)N(C)C(=O)[C@H]([C@@H](C)CC)NC(=O)[C@H](CC)N(C)C(=O)C[C@@H](C(=O)N2CCOCC2)N(C)C(=O)[C@H](C2CCCC2)N(C)C(=O)C2(CCCC2)NC(=O)[C@@H]2CCCN2C(=O)[C@H](CCc2ccc(C(F)(F)F)c(Cl)c2)NC(=O)CN(C)C(=O)[C@@H]1Cc1ccc(C(F)(F)F)cc1 [PP0194] ([NMeAbu]I[NMeA][Aze][NPrPhe(4-CF3)][Sar][hPhe(3-Cl-4-CF3)]P[Ac5c][NMeGly(cPent)][NMeD]-Morpholide; lactam N-11) | 0.09 nM | B (a compound having 3 or more and less than 10 is denoted as B) | C (A compound having a KD ratio of 0.1 or more and less than 3 is denoted as C) |  |
| CC[C@H](C)[C@@H]1NC(=O)[C@H](CC(C)C)N(C)C(=O)C[C@@H](C(=O)N(C)C)N(C)C(=O)[C@H](C2CCCC2)N(C)C(=O)C2(CCC2)NC(=O)[C@@H]2CCCN2C(=O)[C@H](CCc2cc(F)c(C(F)(F)F)c(F)c2)NC(=O)CN(C)C(=O)[C@H](Cc2ccc(C(F)(F)F)cc2)N2CCCC[C@@H](C2=O)N(C)C(=O)CN(C)C1=O [PP0574] | 0.026 nM |  |  | HRAS/KRAS (ratio of KD value with respect to HRAS to KD value with respect to KRAS) [2]: B (a compound having 3 or more and less than 10 is denoted as B); NRAS/KRAS (ratio of KD value with respect to NRAS to KD value with respect to KRAS) [3]: C (A compound having a KD ratio of 0.1 or more and less than 3 is denoted as C) |
| CCCN1C(=O)CN(C)C(=O)CN(CC)C(=O)[C@H](C2CCC2)NC(=O)[C@H](CC(C)C)N(C)C(=O)C[C@@H](C(=O)N2CCOCC2)N(C)C(=O)[C@H](C2CCCC2)N(C)C(=O)C2(CCCC2)NC(=O)[C@@H]2CCCN2C(=O)[C@H](CCc2ccc(C(F)(F)F)c(Cl)c2)NC(=O)CN(C)C(=O)[C@@H]1Cc1ccc(C(F)(F)F)cc1 [PP0292] ([NMeL][Gly(cBu)][NEtG][Sar][NPrPhe(4-CF3)][Sar][hPhe(3-Cl-4-CF3)]P[Ac5c][NMeGly(cPent)][NMeD]-Morpholide; lactam N-11) | 0.54 nM | C (A compound having a KD ratio of 0.1 or more and less than 3 is denoted as C) | B (a compound having 3 or more and less than 10 is denoted as B) |  |
| CCCN1C(=O)[C@@H]2CCN2C(=O)[C@H](C)N(C)C(=O)[C@H]([C@@H](C)CC)NC(=O)[C@H](CC(C)C)N(C)C(=O)C[C@@H](C(=O)N2CCOCC2)N(C)C(=O)[C@H](C2CCCC2)N(C)C(=O)C2(CCCC2)NC(=O)[C@@H]2CC(F)(F)CCN2C(=O)[C@H](CCc2ccc(C(F)(F)F)c(Cl)c2)NC(=O)CN(C)C(=O)[C@@H]1Cc1ccc(C(F)(F)F)cc1 [PP0285] ([NMeL]I[NMeA][Aze][NPrPhe(4-CF3)][Sar][hPhe(3-Cl-4-CF3)][Pip(4,4-F2)][Ac5c][NMeGly(cPent)][NMeD]-Morpholide; lactam N-11) | 0.75 nM | B (a compound having 3 or more and less than 10 is denoted as B) | C (A compound having a KD ratio of 0.1 or more and less than 3 is denoted as C) |  |
| CCO[C@@H]1C[C@H]2C(=O)NC3(CCCC3)C(=O)N(C)[C@@H](C3CCCC3)C(=O)N(C)[C@H](C(=O)N(C)C)CC(=O)N(C)[C@@H](CC(C)C)C(=O)N[C@@H]([C@@H](C)CC)C(=O)N(C)CC(=O)N(C)[C@H]3C/C=C\CCN(C3=O)[C@@H](Cc3ccc(C(F)(F)F)cc3)C(=O)N(C)CC(=O)N[C@@H](CCc3ccc(Cl)c(Cl)c3)C(=O)N2C1 [PP2837] | 0.21 nM |  |  | HRAS/KRAS (ratio of KD value with respect to GDP-bound HRAS wild-type protein to KD value with respect to KRAS) ([2]; SPR KD ratio HRAS/KRAS, class symbols): A (a compound having 10 or more and less than 20 is denoted as A); NRAS/KRAS (ratio of KD value with respect to GDP-bound NRAS wild-type protein to KD value with respect to KRAS) ([3]; SPR KD ratio NRAS/KRAS, class symbols): AA (a compound having 20 or more is denoted as AA) |
